Patent publication US20150335634A1, “ISOQUINOLINE ALKALOID DERIVATIVE FOR ACTIVATING AMP-DEPENDENT PROTEIN KINASE” (ZIH YUAN TANG Biotechnology Co., Ltd, priority 2014, published 2015)

Tests used:
[1] = system: AMP-dependent protein kinase (AMPK); test: AMPK phosphorylation (Phospho-AMPKα Thr172 Western blot) in C2C12 myocytes; type: cell-based, mice
Procedure: C2C12 skeletal myoblast cell line was purchased from the Food Industry Research and Development Institute (Hsinchu, Taiwan). The C2C12 cell line was a cell line obtained from culturing the leg skeletal muscle of adult C3H mice in a cell incubator under 95% […], 5% CO2, and 37° C. The cells were cultured in a DMEM medium (Gibco/Invitrogen, Carlsbad, Calif.) containing 4.5 mg/mL glucose, 10% fetal bovine serum (FBS; Gibco/Invitrogen, Carlsbad, Calif.), and an antibiotic solution (with final concentrations of penicillin=100 IU/mL and streptomycin=100 μg/mL). When the C2C12 myoblast cells have proliferated to cover seven-tenths of the area in the petri dish, the fetal bovine serum was replaced by 2% horse serum (Gibco/Invitrogen, Carlsbad, Calif.) so as to induce the C2C12 myoblast cells to become the multi-nuclei myocytes. The C2C12 myoblast cells differentiated into myocytes in 4 days, and the culture medium of the cells was replaced with no-serum DMEM 24 hours before the experiments so as to reduce metabolism of the cells.
The C2C12 myocytes were treated respectively with 1 μM, 3 μM and 10 μM salsolinol and reticuline for 5 and 15 minutes. Then the C2C12 myocytes were rinsed with PBS buffer solution, and RIPA buffer solution containing protease inhibitors (20 mM Tris-HCl (pH 7.4), 100 mM NaCl, 1 mM EDTA, 1 mM EGTA, 0.1% SDS, 0.5% sodium deoxycholate, 1% NP-40, and 100X protease inhibitor cocktail) was added into the cells. The cells were collected and centrifuged on ice. Then, the concentrations of the supernatant samples were adjusted to be the same.
The supernatant samples were put through vertical electrophoresis isolation with 8% SDS-PAGE, and the isolated proteins were transferred onto a PVDF blotting membrane. After blotting was completed, the PVDF blotting membrane was removed and blocked for 1 hour under room temperature with a blocking buffer of TBST (Tris-buffered saline with Tween-20) with 5% non-fat milk. Then, the PVDF blotting membrane was placed into a 5% BSA and TBST solution containing the primary monoclonal antibodies Phospho-AMPKα (Thr172) (Cell Signaling) (1:1000) and AMPKα […] (Cell Signaling) (1:1000), respectively, and the primary immunoblotting reaction was performed under 4° C. Then, the PVDF blotting membrane was rinsed 3 times with TBST, and a TBST solution containing the secondary antibody goat anti-rabbit IgG (Perkin Elmer) (1:10000) was added to perform the secondary reaction for one hour under room temperature. Finally, the membrane was rinsed 3 times with TBST before ECL (enhanced chemiluminescence) was added to present color.

[2] = system: ICR mice with Type II diabetes induced by high-sugar high-lipid food; test: oral glucose tolerance test (OGTT) in ICR mice fed with high-lipid food and high fructose syrup; type: in vivo
Procedure: (§1) ICR mice were each fed with high-lipid food and high fructose syrup for 2 weeks. Then, salsolinol (10 mg/Kg/day) and Glibenclamide (10 mg/Kg) were administered on day 1. After 30 minutes, glucose (1 g/Kg) was orally administered and blood was taken from the mice immediately thereafter (this time point was designated as 0 minute). Blood was also taken later at 30, 60, 90, 120 and 150 minutes, and the blood glucose levels in the serum were determined
as §1, with “weeks, and then administered with salsolinol (10 mg/Kg/day) and Glibenclamide (10 mg/Kg) for 14 consecutive days. Afterwards,” for “weeks. Then,”, “again administered, and” for “administered on day 1. After 30 minutes,”, “administered after 30 minutes” for “administered”, “determined.” for “determined”
The effect of blood glucose reduction was evaluated with the oral glucose tolerance test (OGTT). […] Blood was also taken later at 30, 60, 90, 120 and 150 minutes, and the blood glucose levels in the serum were determined after centrifugation.

insulin secretion = test: effect on insulin secretion compared with Glibenclamide; conditions: as opposed to Glibenclamide

| Structure (SMILES) | AMPK phosphorylation relative to control cells ([1]; 3 μM, treated for 5 minutes) | AMPK phosphorylation relative to control cells ([1]; 3 μM, treated for 15 minutes) | AMPK phosphorylation relative to control cells ([1]; 10 μM, treated for 5 minutes) | AMPK phosphorylation relative to control cells ([1]; 10 μM, treated for 15 minutes) | long-term reduction of blood glucose (OGTT) ([2]; 10 mg/Kg/day for 14 consecutive days, glucose 1 g/Kg orally after 30 minutes, compared with Glibenclamide 10 mg/Kg (FIG. 4)) | fast reduction of blood glucose (OGTT) ([2]; 10 mg/Kg/day, administration on day 1, glucose 1 g/Kg orally after 30 minutes, compared with Glibenclamide 10 mg/Kg (FIG. 3)) | effect on insulin secretion (insulin secretion) |
| --- | --- | --- | --- | --- | --- | --- | --- |
| COc1ccc(C[C@H]2c3cc(O)c(OC)cc3CCN2C)cc1O [reticuline] | 1.52 times of that in the control cells | 1.04 times of that in the control cells | 2.05 times of that in the control cells | 2.07 times of that in the control cells | – | – | – |
| CC1NCCc2cc(O)c(O)cc21 (centres unmarked) [salsolinol] | – | – | 1.66 times of that in the control cells | – | blood glucose-reduction effect similar to that of Glibenclamide | blood glucose-reduction effect similar to that of Glibenclamide | lower effect on insulin secretion |
